Laboratory results from patent US20230094922A1, “METHODS OF THERAPEUTIC PROGNOSTICATION” (GENETIKAPLUS LTD., priority 2020, published 2023).

Test system: iPSC-derived cortical neurons
Assay: Dendritic arborization analysis (dendrite length), confocal imaging
Format: cell-based, human
Procedure: FIG. 7. Analysis of dendritic arborization. Dendritic arborization was analyzed using confocal microscopy in samples treated with Bupropion. Images for dendritic arborization were acquired with a 20× objective in z-stacks and analyzed using Neurolucida software. iPSC differentiation into neurons-iPSCs were seeded at a density of 3×10^6 cells/well on a hESC-qualified Matrigel pre-coated 6-well plate and incubated at 37° C., 5% CO2 overnight. Differentiation was initiated the following day (day 0) after verifying that 100% confluency was reached. Differentiation media was added daily according to the following order: […]7 (day 15 onward) similar to a previously published protocol developed by for rapid differentiation to cortical neurons. The components of the described media, Q1-7, are provided in Appendix 1. Cells were assessed for differentiation efficiency and cell death on a daily basis. […] Neuronal and synaptic morphology was assessed using the Neurolucida software, pre- and post-synaptic marker analysis was performed using CellProfiler and total dendritic length was measured using Fiji software.

CC(NC(C)(C)C)C(=O)c1cccc(Cl)c1 (stereo not drawn) [Bupropion, 3-Chloro-N-tert-butyl-β-keto-α-methylphenethylamin]
dendritic length, effect of treatment (significant decrease or not) (cells derived from non-responders): did not
dendritic length, effect of treatment (neurons derived from responders): significant decrease in dendritic length
